Earlier results in PMC9099121, “Population pharmacokinetic and exposure‐response analyses from ALTA‐1L: Model‐based analyses supporting the brigatinib dose in ALK‐positive NSCLC” (Clinical and Translational Science, 2022).

Tested on: ALK-rearranged advanced NSCLC
Design: method as in PMID 31020351
Settings: time-dependent exposure metric; 95% CI: 0.92–1.17; nonsignificant; cited from earlier work

Cc1cc(Nc2ncc(Cl)c(Nc3ccccc3S(=O)(=O)C(C)C)n2)c(OC(C)C)cc1C1CCNCC1 [ceritinib]
HR, exposure versus risk of disease progression: 1.04
